Results: ChEMBL document CHEMBL1201862, “PubChem BioAssay data set” (2004)
Calls of active or inactive are those of the source. The rule behind the calls is not given here.

Legend:
Protein Rev = Protein Rev (Human immunodeficiency virus type 1 group M subtype B (isolate WMJ22)(HIV-1), UniProt P05866); assay: inhibitors of Rev protein–RRE RNA complex – biochemical, protein-RNA interaction, dose response (AID 842); design: species or system Human immunodeficiency virus 1
[1] = target: Lysosomal acid glucosylceramidase (Homo sapiens, UniProt P04062); assay: Dose response cell-based high throughput screening assay to identify enhancers of beta-glucosidase activity. [Related pubchem assays: 784 ]; assay type: functional
Cytochrome P450 3A4 = Cytochrome P450 3A4 (Homo sapiens, UniProt P08684); conditions: Potency;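 note: confirmatory qHTS run detecting inhibitors and substrates of CYP3A4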
Cytochrome P450 2C9 = Cytochrome P450 2C9 (Homo sapiens, UniProt P11712); conditions: Potency
[2] = target: Metabotropic glutamate receptor 4 (Rattus norvegicus, UniProt P31423); assay: Modulation of the Metabotropic Glutamate Receptor mGluR4: Rat PAM Potency. [Related pubchem assays (depositor defined):AID2437, AID2807]; assay type: functional
Metabotropic glutamate receptor 4, sequence (P31423 whole entry): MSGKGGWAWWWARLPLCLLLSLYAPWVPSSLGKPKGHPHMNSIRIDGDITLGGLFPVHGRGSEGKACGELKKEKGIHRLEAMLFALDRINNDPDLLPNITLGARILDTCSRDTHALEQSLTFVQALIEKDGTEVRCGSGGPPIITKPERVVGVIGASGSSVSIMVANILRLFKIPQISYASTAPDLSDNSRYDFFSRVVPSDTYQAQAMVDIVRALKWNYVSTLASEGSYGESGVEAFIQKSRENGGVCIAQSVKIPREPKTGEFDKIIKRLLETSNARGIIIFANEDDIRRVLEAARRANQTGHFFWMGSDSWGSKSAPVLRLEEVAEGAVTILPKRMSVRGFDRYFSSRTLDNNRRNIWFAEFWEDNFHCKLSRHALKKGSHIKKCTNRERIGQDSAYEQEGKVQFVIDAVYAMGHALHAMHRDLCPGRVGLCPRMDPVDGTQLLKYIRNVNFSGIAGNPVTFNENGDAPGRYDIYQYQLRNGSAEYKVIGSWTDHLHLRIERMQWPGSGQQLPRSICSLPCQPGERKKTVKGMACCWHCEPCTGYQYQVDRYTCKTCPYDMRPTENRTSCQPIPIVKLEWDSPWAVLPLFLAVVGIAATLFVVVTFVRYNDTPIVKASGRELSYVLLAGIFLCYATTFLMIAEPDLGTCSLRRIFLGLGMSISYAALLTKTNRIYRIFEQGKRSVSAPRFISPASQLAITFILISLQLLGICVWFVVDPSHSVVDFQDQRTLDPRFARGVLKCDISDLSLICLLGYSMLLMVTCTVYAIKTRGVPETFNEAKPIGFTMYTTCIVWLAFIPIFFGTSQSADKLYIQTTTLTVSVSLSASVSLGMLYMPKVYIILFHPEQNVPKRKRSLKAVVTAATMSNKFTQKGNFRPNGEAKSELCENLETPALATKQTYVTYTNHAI

Protein Rev, sequence (P05866 whole entry): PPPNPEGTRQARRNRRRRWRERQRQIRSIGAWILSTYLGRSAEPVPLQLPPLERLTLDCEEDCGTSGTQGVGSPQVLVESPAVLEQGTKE
Cytochrome P450 2C9, sequence (P11712 whole entry): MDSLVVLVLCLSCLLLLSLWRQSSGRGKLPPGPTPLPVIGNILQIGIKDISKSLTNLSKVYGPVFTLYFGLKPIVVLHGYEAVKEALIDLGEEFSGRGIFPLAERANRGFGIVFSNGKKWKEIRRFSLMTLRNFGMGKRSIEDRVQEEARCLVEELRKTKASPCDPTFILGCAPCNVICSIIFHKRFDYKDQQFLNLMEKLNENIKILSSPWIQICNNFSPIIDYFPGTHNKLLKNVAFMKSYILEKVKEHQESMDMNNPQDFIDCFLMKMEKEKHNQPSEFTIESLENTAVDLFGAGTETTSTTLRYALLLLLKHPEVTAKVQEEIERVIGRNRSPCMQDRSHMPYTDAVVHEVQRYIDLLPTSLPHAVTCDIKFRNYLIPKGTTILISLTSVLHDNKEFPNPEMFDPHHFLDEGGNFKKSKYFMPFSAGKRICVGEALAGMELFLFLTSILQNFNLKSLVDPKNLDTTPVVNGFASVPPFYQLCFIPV
Cytochrome P450 3A4, sequence (P08684 whole entry): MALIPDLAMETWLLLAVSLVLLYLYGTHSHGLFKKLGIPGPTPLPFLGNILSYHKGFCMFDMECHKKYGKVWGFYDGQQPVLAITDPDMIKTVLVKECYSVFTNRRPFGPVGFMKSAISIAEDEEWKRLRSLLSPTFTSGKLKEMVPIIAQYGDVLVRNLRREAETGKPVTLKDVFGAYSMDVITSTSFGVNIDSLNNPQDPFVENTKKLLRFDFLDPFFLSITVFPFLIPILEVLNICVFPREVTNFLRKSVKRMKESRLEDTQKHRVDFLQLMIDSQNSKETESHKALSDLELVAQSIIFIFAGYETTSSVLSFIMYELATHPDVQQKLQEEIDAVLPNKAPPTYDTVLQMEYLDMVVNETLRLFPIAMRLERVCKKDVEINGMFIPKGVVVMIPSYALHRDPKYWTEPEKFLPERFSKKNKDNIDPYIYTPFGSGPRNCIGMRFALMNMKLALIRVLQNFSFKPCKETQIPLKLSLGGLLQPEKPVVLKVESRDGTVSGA
Lysosomal acid glucosylceramidase, sequence (P04062 whole entry): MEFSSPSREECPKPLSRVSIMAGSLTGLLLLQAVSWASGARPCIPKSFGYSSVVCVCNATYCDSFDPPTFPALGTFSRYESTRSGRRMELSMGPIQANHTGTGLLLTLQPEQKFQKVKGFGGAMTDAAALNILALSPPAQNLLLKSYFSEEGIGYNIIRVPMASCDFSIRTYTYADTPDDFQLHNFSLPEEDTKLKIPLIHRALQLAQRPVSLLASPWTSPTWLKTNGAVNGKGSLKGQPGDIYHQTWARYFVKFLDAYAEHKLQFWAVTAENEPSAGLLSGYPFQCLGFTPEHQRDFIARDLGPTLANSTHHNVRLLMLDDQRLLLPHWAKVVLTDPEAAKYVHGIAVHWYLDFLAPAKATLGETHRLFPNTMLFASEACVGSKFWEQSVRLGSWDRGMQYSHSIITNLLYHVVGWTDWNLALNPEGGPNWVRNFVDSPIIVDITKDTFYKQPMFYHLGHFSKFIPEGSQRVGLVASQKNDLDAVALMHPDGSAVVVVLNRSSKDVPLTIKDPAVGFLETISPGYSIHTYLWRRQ

SMILES: COc1ccc(CCNC(C)CCc2ccc(OC)cc2)cc1 (stereo not given)
- IC50 (Protein Rev): > 79.4 µM (not active)

SMILES: O=C(OCCN1CCCCC1)c1cc2ccccc2o1
- EC50 [1]: > 10 µM (not active)

SMILES: CC1CN2C(CCC(C)C2c2ccc(Br)cc2)C(=O)O1 (stereo not given)
- AC50 (Cytochrome P450 3A4): 5.01 µM (inconclusive)
- AC50 (Cytochrome P450 2C9): 3.98 µM (inconclusive)

SMILES: CC1(c2ccccc2)CC(=O)N(c2ccc(NC(=O)c3ccccn3)cc2Cl)C1=O (stereo not given)
- EC50 [2]: 0.54 µM (active)
